The source of these data is BindingDB's records for doi:10.1124/jpet.102.046797 (University of Maryland, 2003).

This experiment addresses T1, Gamma-hydroxybutyrate receptor (Rattus norvegicus, UniProt Q6RY99).
T1 sequence (Q6RY99 whole entry): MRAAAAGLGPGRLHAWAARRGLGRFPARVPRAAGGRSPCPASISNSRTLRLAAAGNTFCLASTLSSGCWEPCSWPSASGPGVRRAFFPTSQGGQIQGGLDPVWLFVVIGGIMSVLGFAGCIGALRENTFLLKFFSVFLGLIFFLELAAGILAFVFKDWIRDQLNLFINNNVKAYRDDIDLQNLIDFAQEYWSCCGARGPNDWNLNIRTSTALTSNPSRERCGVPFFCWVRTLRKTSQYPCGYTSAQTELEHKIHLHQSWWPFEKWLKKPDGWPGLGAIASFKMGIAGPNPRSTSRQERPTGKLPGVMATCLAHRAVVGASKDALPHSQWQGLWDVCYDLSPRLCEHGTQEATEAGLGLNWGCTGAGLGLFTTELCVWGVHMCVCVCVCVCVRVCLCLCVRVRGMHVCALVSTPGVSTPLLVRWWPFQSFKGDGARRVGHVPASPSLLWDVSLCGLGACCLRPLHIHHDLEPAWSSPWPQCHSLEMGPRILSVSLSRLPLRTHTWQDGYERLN
Compound `O=C(O)/C=C1/CCCc2ccccc2C1O` (centres undefined) [CAS_131413] came in with an inhibition constant Ki of 1.8 µM.

In turn, `O=C(O)CCCCO` [UMB58] gave an inhibition constant Ki of more than 10 µM.

For the compound `CC(C)(O)CCC(=O)O` [UMB68], the Ki was more than 10 µM.

As for `CC(C)(O)CCCC(=O)O` [UMB75], the Ki was more than 10 µM.

Broadly, the Ki is a measure of affinity in units of concentration, obtained from inhibition or displacement.
